Source: ChEMBL document CHEMBL1201862, “PubChem BioAssay data set” (2004)
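Step 1: Grow cells in 96-well plates. Step 2: Expose to compound for 48 hours at 5 concentrations. Step 3: Interpolate endpoints linearly; if unreached, use highest concentration. GI50 = concentration required for 50% inhibition of growth.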 The source made the active and inactive calls. Cut-off read from the data, not from the text of the source: active = GI50 up to about 1.1 µM and inactive = higher.

Key:
Test in all cases: growth of human tumour cells (NCI), 48 h
[1] = test system: HCT-116
[2] = test system: Hs-578T
[3] = test system: OVCAR-5
[4] = test system: PC-3
[5] = test system: SK-MEL-28
[6] = test system: COLO 205
[7] = test system: MDA-MB-231
[8] = test system: OVCAR-8
[9] = test system: SNB-19
[10] = test system: TK-10
[11] = test system: MDA-N
[12] = test system: RPMI-8226
[13] = test system: ACHN
[14] = test system: HOP-62
[15] = test system: SK-OV-3
[16] = test system: HOP-92
[17] = test system: NCI-H460
[18] = test system: SF-268
[19] = test system: HCT-15
[20] = test system: MCF7
[21] = test system: BT-549
[22] = test system: HL-60
[23] = test system: IGROV-1
[24] = test system: SW-620
[25] = test system: T47D
[26] = test system: NCI/ADR-RES
[27] = test system: DU-145
[28] = test system: KM12
[29] = test system: OVCAR-3
[30] = test system: UACC-62
[31] = test system: A549
[32] = test system: SN12C
[33] = test system: MOLT-4
[34] = test system: NCI-H23
[35] = test system: 786-0
[36] = test system: K562
[37] = test system: SF-295
[38] = test system: NCI-H226
[39] = test system: SK-MEL-5
[40] = test system: SR
[41] = test system: OVCAR-4
[42] = test system: LOX IMVI
[43] = test system: NCI-H522
[44] = test system: UACC-257
[45] = test system: Malme-3M
[46] = test system: RXF 393
[47] = test system: M14
[48] = test system: U-251
[49] = test system: EKVX
[50] = test system: SF-539
[51] = test system: SNB-75
[52] = test system: HCC 2998
[53] = test system: UO-31
[54] = test system: CCRF-CEM
[55] = test system: MDA-MB-435
[56] = test system: HT-29
[57] = test system: A498
[58] = test system: CAKI-1
[59] = test system: SK-MEL-2

Measured: GI50

CC1(C)C2CCC1C(=O)[C@@]1(C=CC(=O)CC1)C2 (some centres not stated)
inactive: [1] > 100 µM | [2] > 100 µM | [3] > 100 µM | [4] > 100 µM | [5] 43.1 µM | [6] > 100 µM | [7] > 100 µM | [8] > 100 µM | [9] > 100 µM | [10] > 100 µM | [11] > 100 µM | [12] > 100 µM | [13] > 100 µM | [14] > 100 µM | [15] > 100 µM | [16] > 100 µM | [17] > 100 µM | [18] > 100 µM | [20] > 100 µM | [21] > 100 µM | [22] > 100 µM | [23] > 100 µM | [24] > 100 µM | [25] > 100 µM | [26] > 100 µM | [27] > 100 µM | [28] > 100 µM | [29] > 100 µM | [30] > 100 µM | [31] > 100 µM | [32] > 100 µM | [33] > 100 µM | [34] > 100 µM | [35] > 100 µM | [36] > 100 µM | [37] > 100 µM | [38] > 100 µM | [39] > 100 µM | [40] > 100 µM | [41] > 100 µM | [42] > 100 µM | [43] > 100 µM | [44] > 100 µM | [45] > 100 µM | [46] > 100 µM | [47] > 100 µM | [48] > 100 µM | [49] > 100 µM | [50] > 100 µM | [51] 61.1 µM | [52] > 100 µM | [53] > 100 µM | [54] > 100 µM | [55] > 100 µM | [56] > 100 µM
> 100 µM: [19]

C/C(=N\NC(=O)c1ccc(Cl)cc1)c1nc2cccnc2[nH]1
11.7 µM: [19]
inactive: [1] 32.6 µM | [2] 27.3 µM | [3] > 100 µM | [4] > 100 µM | [5] 27 µM | [6] 30.5 µM | [7] 36.8 µM | [8] 15.5 µM | [9] 18.9 µM | [10] 15.2 µM | [11] 30.5 µM | [12] 27 µM | [13] 15.7 µM | [14] 32.7 µM | [15] 20.4 µM | [17] 14.7 µM | [18] 17.1 µM | [20] 30.2 µM | [21] 22.3 µM | [22] 32.7 µM | [23] 15.1 µM | [24] 28.9 µM | [25] 22.8 µM | [26] 20.5 µM | [27] 49 µM | [28] 24.8 µM | [29] 22.9 µM | [30] 20.7 µM | [31] 30.2 µM | [32] 27.6 µM | [33] 14.3 µM | [34] 33.8 µM | [35] 16 µM | [36] 42.6 µM | [37] 45.8 µM | [57] 43.8 µM | [39] 15.8 µM | [40] 18 µM | [41] 18.2 µM | [42] 12.2 µM | [43] 18.7 µM | [44] 20 µM | [45] 14.2 µM | [46] 18.1 µM | [47] 36.2 µM | [48] 8.93 µM | [49] 43 µM | [58] 28.8 µM | [50] 18.2 µM | [51] 3.26 µM | [52] > 100 µM | [53] 26.7 µM | [54] 10.4 µM | [59] 28.4 µM | [55] 25.2 µM | [56] 45.9 µM

Clc1cc2nnn(C3CCCCO3)c2cc1Cl (configuration not stated)
inactive: [1] 79.8 µM | [2] 35.4 µM | [3] > 100 µM | [4] 58.1 µM | [6] > 100 µM | [7] 24.5 µM | [8] > 100 µM | [9] > 100 µM | [10] > 100 µM | [11] > 100 µM | [12] > 100 µM | [13] > 100 µM | [14] > 100 µM | [15] > 100 µM | [17] 88.9 µM | [18] 42.3 µM | [20] > 100 µM | [21] 41.5 µM | [23] > 100 µM | [25] 30.4 µM | [26] 48.3 µM | [27] 99.1 µM | [28] 86.3 µM | [29] 69.3 µM | [30] 37.2 µM | [31] 80.2 µM | [32] > 100 µM | [33] 75.7 µM | [34] > 100 µM | [35] > 100 µM | [36] > 100 µM | [37] > 100 µM | [38] 23.5 µM | [57] 36.1 µM | [39] 38.7 µM | [40] 51.6 µM | [41] > 100 µM | [43] 42.5 µM | [44] 60.7 µM | [45] > 100 µM | [46] > 100 µM | [47] > 100 µM | [48] 80.7 µM | [49] 20.7 µM | [58] 30.4 µM | [50] > 100 µM | [51] 34.4 µM | [52] > 100 µM | [53] 30.7 µM | [54] > 100 µM | [59] > 100 µM | [55] > 100 µM | [56] 63.1 µM
96.6 µM: [19]
